Data: US12414565B2, “Pyridazine (THIO)amides as fungicidal compounds” (Bayer Aktiengesellschaft, priority 2018, dated 2025)

What was measured:
Botrytis cinerea = experiment: In vivo preventive test on Botrytis cinerea (grey mould); conditions: 500 ppm of active ingredient, preventive spray on gherkin or cabbage, evaluated 4 to 5 days after inoculation, 100% = no disease, read-out: efficacy
Method: (§1) The active ingredients were made soluble and homogenized in a mixture of Dimethyl sulfoxide/Acetone/Tween® 80 and then diluted in water to the desired concentration.
The young plants of gherkin or cabbage were treated by spraying the active ingredient prepared as described above. Control plants were treated only with an aqueous solution of Acetone/Dimethyl sulfoxide/Tween® 80.
After 24 hours, the plants were contaminated by spraying the leaves with an aqueous suspension of Botrytis cinerea spores. The contaminated gherkin plants were incubated for 4 to 5 days at 17° C. and at 90% relative humidity. The contaminated cabbage plants were incubated for 4 to 5 days at 20° C. and at 100% relative humidity.
The test was evaluated 4 to 5 days after the inoculation. 0% means an efficacy which corresponds to that of the control plants while an efficacy of 100% means that no disease was observed.

Alternaria brassicae = experiment: In vivo preventive test on Alternaria brassicae (leaf spot on radish or cabbage); conditions: 144 h, 500 ppm of active ingredient, preventive spray on radish or cabbage, evaluated 6 days after inoculation, 100% = no disease, read-out: efficacy
Method: as §1
The young plants of radish or cabbage were treated by spraying the active ingredient prepared as described above. Control plants were treated only with an aqueous solution of Acetone/Dimethyl sulfoxide/Tween® 80.
After 24 hours, the plants were contaminated by spraying the leaves with an aqueous suspension of Alternaria brassicae spores. The contaminated radish or cabbage plants were incubated for 6 days at 20° C. and at 100% relative humidity.
The test was evaluated 6 days after the inoculation. 0% means an efficacy which corresponds to that of the control plants while an efficacy of 100% means that no disease was observed.

Septoria tritici = Septoria tritici in vitro cell test; assay type: cell-based; conditions: Zymoseptoria tritici, 168 h; 20 ppm of active ingredient; liquid culture, 7 days incubation, absorbance; read-out: efficacy (inhibition of fungal growth)
Method: (§2) [table] Fungicides were solubilized in DMSO and the solution used to prepare the required range of concentrations. The final concentration of DMSO used in the assay was ≤1%. A spore suspension of S. tritici was prepared and diluted to the desired spore density. Fungicides were evaluated for their ability to inhibit spore germination and mycelium growth in liquid culture assay. The compounds were added in the desired concentration to the culture medium with spores. After 7 days incubation, fungi-toxicity of compounds was determined by spectrometric measurement of mycelium growth. Inhibition of fungal growth was determined by comparing the absorbance values in wells containing the fungicides with the absorbance in control wells without fungicides.

[1] = test system: Colletotrichum lindemuthianum; experiment: Colletotrichum lindemuthianum in vitro cell test; assay type: cell-based; conditions: 144 h, 20 ppm of active ingredient, liquid culture, 6 days incubation, absorbance, read-out: efficacy (inhibition of fungal growth)
Method: as §2, with “of C. lindemuthianum” for “of S. tritici”, “inhibit spores” for “inhibit spore”, “After 6” for “After 7”

Alternaria alternata = Alternaria alternata in vitro cell test; assay type: cell-based; conditions: 120 h, 20 ppm of active ingredient, liquid culture, 5 days incubation, absorbance, read-out: efficacy (inhibition of fungal growth)
Method: as §2, with “<1%.” for “≤1%.”, “A. alternata” for “S. tritici”, “5” for “7”

Sphaerotheca fuliginea = experiment: In vivo preventive test on Sphaerotheca fuliginea (powdery mildew on cucurbits); conditions: Podosphaera fuliginea, 192 h; 500 ppm of active ingredient; preventive spray on gherkin; evaluated 8 days after inoculation; 100% = no disease; read-out: efficacy
Method: as §1
The young plants of gherkin were treated by spraying the active ingredient prepared as described above. Control plants were treated only with an aqueous solution of Acetone/Dimethyl sulfoxide/Tween® 80.
After 24 hours, the plants were contaminated by spraying the leaves with an aqueous suspension of Sphaerotheca fuliginea spores. The contaminated gherkin plants were incubated for 8 days at 20° C. and at 70-80% relative humidity.
The test was evaluated 8 days after the inoculation. 0% means an efficacy which corresponds to that of the control plants while an efficacy of 100% means that no disease was observed.

Pyrenophora teres = experiment: In vivo preventive test on Pyrenophora teres (net blotch on barley); conditions: 240 h, 500 ppm of active ingredient, preventive spray on barley, evaluated 10 days after inoculation, 100% = no disease, read-out: efficacy
Method: as §1
The young plants of barley were treated by spraying the active ingredient prepared as described above. Control plants were treated only with an aqueous solution of Acetone/Dimethyl sulfoxide/Tween® 80.
After 24 hours, the plants were contaminated by spraying the leaves with an aqueous suspension of Pyrenophora teres spores. The contaminated barley plants were incubated for 48 hours at 20° C. and at 100% relative humidity and then for 8 days at 20° C. and at 70-80% relative humidity.
The test was evaluated 10 days after the inoculation. 0% means an efficacy which corresponds to that of the control plants while an efficacy of 100% means that no disease was observed.

SMILES	pest or weed control at 500 ppm (Botrytis cinerea)	pest or weed control at 500 ppm (Alternaria brassicae)	inhibition at 20 ppm (Septoria tritici)	inhibition at 20 ppm [1]	inhibition at 20 ppm (Alternaria alternata)	pest or weed control at 500 ppm (Sphaerotheca fuliginea)	pest or weed control at 500 ppm (Pyrenophora teres)
COCCc1c(Cl)nnc(Oc2cccc(C(F)(F)F)c2)c1C(=O)NCC(F)(F)c1ccc(Br)cc1Cl [I-070, N-[2-(4-bromo-2-chloro-phenyl)-2,2-difluoro-ethyl]-6-chloro-5-(2-methoxyethyl)-3-[3-(trifluoromethyl)phenoxy]pyridazine-4-carboxamide]	90 to 100%	90 to 100%	90 to 100%	90 to 100%	90 to 100%	90 to 100%	90 to 100%
Cc1ccc(C(F)(F)CNC(=O)c2c(Oc3cccc(C(F)(F)F)c3)nnc(Cl)c2-c2cccnc2)c(C)c1 [I-550, 6-chloro-N-[2-(2,4-dimethylphenyl)-2,2-difluoro-ethyl]-5-(3-pyridyl)-3-[3-(trifluoromethyl)phenoxy]pyridazine-4-carboxamide]	90 to 100%	90 to 100%	90 to 100%	90 to 100%	90 to 100%	90 to 100%	–
Cc1ccc(C(F)(F)CNC(=O)c2c(Oc3cccc(Cl)c3)nnc(Cl)c2C)c(C)c1 [I-790, 6-chloro-3-(3-chlorophenoxy)-N-[2-(2,4-dimethylphenyl)-2,2-difluoro-ethyl]-5-methyl-pyridazine-4-carboxamide]	90 to 100%	90 to 100%	70 to 79%	90 to 100%	90 to 100%	90 to 100%	–
